Laboratory results taken from paper PMC6273687, “Design, Synthesis and Biological Evaluation of Novel Primaquine-Cinnamic Acid Conjugates of the Amide and Acylsemicarbazide Type” (Molecules, 2016).

Key:
[1] = system: CEM acute lymphoblastic leukemia cell line; experiment: Growth inhibition of tumor cell lines in vitro (MTT / cell counting); type: cell-based; details: Homo sapiens, 96 h, 4 days
Description: (§1) The experiments were carried out on a murine lymphocytic leukemia cell line (L1210) and five human tumor cell lines: CEM, HeLa, NCI-H460, SW 620 and MCF-7. The cells were cultured as monolayers and maintained in Dulbecco′s modified Eagle medium (DMEM) supplemented with 10% fetal bovine serum (FBS), 2 mM L-glutamine, 100 U/mL penicillin and 100 μg/mL streptomycin in a humidified atmosphere with 5% CO2 at 37 °C.
(§2) The growth inhibition activity of the compounds was assessed as described previously. The cell lines were inoculated onto a series of standard 96-well microtiter plates on day 0, at 1.5 × 10^4 cells/mL (SW 620, H460) to 2.5 × 10^4 cells/mL (MCF-7, CEM and L1210), depending on the growth of the tumor cell line. Test agents were then added in ten-fold dilutions (10^−8 to 10^−4 M) and the cell cultures were then incubated for 3–4 days with 5% CO2 at 37 °C. Working dilutions of the compounds were freshly prepared on the day of testing.
(§3) After 3 (MCF-7, SW 620, NCI-H460) or 4 days (CEM, L1210), the cell growth rate was evaluated first light microscopically, then by viable cell counting and/or by performing the MTT assay, which detects dehydrogenase activity in live, not dead, cells. The absorbance (A) was measured on a microplate reader at 570 nm. The absorbance is directly proportional to the number of living, metabolically active cells. […] If however, all of the tested concentrations produce PGs exceeding the respective reference level of effect (e.g., PG value of 50), then the highest tested concentration is assigned as the default value, which is preceded by a “>” sign. Minimum two individual experiments were carried out and each test point was performed in quadruplicate.

[2] = system: HeLa cervical carcinoma cell line; experiment: as above; type: cell-based; details: Homo sapiens
Description: as §1, §2, §3

[3] = system: L1210 murine lymphocytic leukemia cell line; experiment: as above; type: cell-based; details: Mus musculus, 96 h; L1210, 4 days
Description: as §1, §2, §3

[4] = system: SW 620 colon carcinoma cell line; experiment: as above; type: cell-based; details: Homo sapiens, 72 h; SW 620, 3 days
Description: as §1, §2, §3

[5] = system: MCF-7 breast carcinoma cell line; experiment: as above; type: cell-based, human; details: for IC50: MCF-7, 3 days
Description: as §1, §2, §3

[6] = system: NCI-H460 lung carcinoma cell line; experiment: as above; type: cell-based, human; details: NCI-H460, 3 days
Description: as §1, §2, §3

[7] = Interaction with the stable radical DPPH (reducing ability)
Description: To a solution of DPPH in absolute ethanol the appropriate volume of the compounds (50 or 100 µM final concentrations) dissolved in DMSO was added. The absorbance was recorded at 517 nm after 20 and 60 min at room temperature. The experiments were repeated at least in triplicate and the standard deviation of absorbance was less than 10% of the mean. NDGA was used under the same experimental conditions as a reference compound.

[8] = target: T1, soybean lipoxygenase (LOX) (Glycine max, UniProt P08170); experiment: LOX inhibition study in vitro; type: biochemical; details: for IC50: values in parentheses in Table 3
T1 construct: purchased Sigma-Aldrich
T1 sequence (P08170 1-839): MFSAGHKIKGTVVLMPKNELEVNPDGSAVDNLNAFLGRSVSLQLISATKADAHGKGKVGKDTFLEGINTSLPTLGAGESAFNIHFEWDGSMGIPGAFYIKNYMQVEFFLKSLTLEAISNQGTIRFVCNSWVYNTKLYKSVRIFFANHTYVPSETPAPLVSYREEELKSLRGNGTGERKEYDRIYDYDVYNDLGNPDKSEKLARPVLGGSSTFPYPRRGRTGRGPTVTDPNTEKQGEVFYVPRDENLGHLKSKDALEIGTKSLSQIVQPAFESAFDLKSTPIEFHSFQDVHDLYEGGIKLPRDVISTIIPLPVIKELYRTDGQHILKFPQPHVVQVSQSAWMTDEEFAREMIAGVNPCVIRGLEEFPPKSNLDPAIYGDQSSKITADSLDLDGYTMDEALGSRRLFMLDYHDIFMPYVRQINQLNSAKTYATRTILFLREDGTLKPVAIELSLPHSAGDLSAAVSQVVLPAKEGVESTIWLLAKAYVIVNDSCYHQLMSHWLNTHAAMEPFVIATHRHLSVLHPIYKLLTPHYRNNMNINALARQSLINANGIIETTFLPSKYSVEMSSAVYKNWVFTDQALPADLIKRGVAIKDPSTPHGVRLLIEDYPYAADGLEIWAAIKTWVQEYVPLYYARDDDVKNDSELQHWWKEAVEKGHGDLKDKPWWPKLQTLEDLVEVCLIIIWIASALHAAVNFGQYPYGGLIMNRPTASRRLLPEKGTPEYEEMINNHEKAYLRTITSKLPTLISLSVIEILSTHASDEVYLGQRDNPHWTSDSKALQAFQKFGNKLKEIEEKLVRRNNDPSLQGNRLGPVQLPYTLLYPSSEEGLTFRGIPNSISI
Description: LOX inhibitory assay in vitro was accomplished as described previously. The test compounds (stock solutions 10 mM in DMSO) were incubated at room temperature with sodium linoleate (c = 0.1 mM) and 0.2 mL of LOX enzyme solution (1/9 × 10^−4 m/V in saline). The conversion of sodium linoleate to 13-hydroperoxylinoleic acid was measured at 234 nm and compared with the reference inhibitor. Several concentrations were used for the IC50 determination.

[9] = Inhibition of linoleic acid peroxidation (AAPH-induced); details: 5 × 10^−5 M
Description: For initiating the lipid peroxidation free radical AAPH was used. Final solution in the UV cuvette consisted of 10 μL linoleate sodium solution (c = 16 mM), 0.93 mL phosphate buffer (c = 0.05 M), pH 7.4, thermostated at 37 °C. 50 μL AAPH solution (c = 40 mM) and 10 μL of the tested compounds were added. The experiment was performed at 37 °C under air. The oxidation of linoleic acid sodium salt was monitored at 234 nm. The assays were repeated at least in triplicate and the standard deviation of absorbance was less than 10% of the mean. Trolox was used under the same experimental conditions as a reference compound.

human coronavirus (229E) = experiment: microbe, parasite or virus in culture; type: cell-based; details: read-out: EC50 (concentration required to reduce virus-induced cytopathogenicity by 50%), HEL cell cultures
colon carcinoma HCT 116 = experiment: Growth inhibition of tumor cell lines in vitro (reference drugs); type: cell-based; details: colon carcinoma HCT 116 (footnote b, printed in SW 620 column)

| Structure (SMILES) | IC50 [1] | IC50 [2] | IC50 [3] | IC50 [4] | IC50 ([5]; Homo sapiens, MCF7, 72 h) | IC50 ([6]; Homo sapiens, 72 h) | DPPH-reducing ability RA (%) ([7]; 1 × 10^−4 M, 20 min) | DPPH-reducing ability RA (%) ([7]; 1 × 10^−4 M, 60 min) | DPPH-reducing ability RA (%) ([7]; 5 × 10^−5 M, 20 min) | DPPH-reducing ability RA (%) ([7]; 5 × 10^−5 M, 60 min) | inhibition at 100 µM ([8]; 1 × 10^−4 M) | LP Inhibition (%) [9] | IC50 [8] | EC50 (human coronavirus (229E)) | fold higher activity than PQ ([5]; MCF-7) | fold higher activity than the anticancer reference drugs ([5]; MCF-7) | IC50 [5] | IC50 [6] | IC50 (colon carcinoma HCT 116) |
| --- | --- | --- | --- | --- | --- | --- | --- | --- | --- | --- | --- | --- | --- | --- | --- | --- | --- | --- | --- |
| COc1cc(NC(C)CCCNC(=O)NNC(=O)/C=C/c2ccccc2)c2ncccc2c1 (stereo not shown) [7a, (E)-1-Cinnamoyl-4-(4-(6-methoxyquinolin-8-ylamino)pentyl)semicarbazide] | 3 ± 0.5 µM | 12 ± 2 µM | 7 ± 3.1 µM | > 100 µM | 2.5 ± 1.9 µM | > 100 µM | 39% | 100% | 49% | 100% | 36% | 83% |  |  |  |  |  |  |  |
| COc1cc(NC(C)CCCNC(=O)NNC(=O)/C(C)=C/c2ccccc2)c2ncccc2c1 (stereo not shown) [7b, (E)-4-(4-(6-Methoxyquinolin-8-ylamino)pentyl)-1-(2-methyl-3-phenylacryloyl)semicarbazide] | 25 ± 14 µM | 47 ± 6 µM | 53 ± 5 µM | 9.5 ± 0.9 µM | 16 ± 9 µM | 50 ± 4 µM | 84% | 99% | 42% | 100% |  | 62% | 100 µM | 15 µM |  |  |  |  |  |
| COc1cc(NC(C)CCCNC(=O)NNC(=O)/C=C/c2ccc(OC)c(OC)c2)c2ncccc2c1 (stereo not shown) [7d, (E)-1-(3-(3,4-Dimethoxyphenyl)acryloyl)-4-(4-(6-methoxyquinolin-8-ylamino)pentyl)semicarbazide] | 93 ± 46 µM | 92 ± 30 µM | 40 ± 14 µM | 25 ± 9 µM | 1.9 ± 1.8 µM | 32 ± 21 µM | 100% | 100% | 55% | 100% |  | 88% | 10 µM |  |  |  |  |  |  |
| COc1cc(NC(C)CCCNC(=O)NNC(=O)/C=C/c2cc(OC)c(OC)c(OC)c2)c2ncccc2c1 (stereo not shown) [7e, (E)-4-(4-(6-Methoxyquinolin-8-ylamino)pentyl)-1-(3-(3,4,5-trimethoxyphenyl)acryloyl)semicarbazide] | 54 ± 12 µM | 70 ± 2 µM | 57 ± 5 µM | 48 ± 17 µM | 1.4 ± 0.1 µM | 63 ± 2 µM | 46% | 100% | 60% | 100% |  | 86% | 43 µM |  |  |  |  |  |  |
| COc1cc(NC(C)CCCNC(=O)NNC(=O)/C=C/c2ccc3c(c2)OCO3)c2ncccc2c1 (stereo not shown) [7f, (E)-1-(3-(Benzo[d][1,3]dioxo-5-yl)acryloyl)-4-(4-(6-methoxyquinolin-8-ylamino)pentyl)semicarbazide] | 7.4 ± 2.1 µM | 31 µM | 4.8 ± 0.2 µM | 17 ± 5 µM | 0.6 ± 0.3 µM | 27 ± 3 µM | 74% | 100% | 47% | 100% |  | 88% | 55 µM | 12.5 µM |  |  |  |  |  |
| COc1cc(NC(C)CCCNC(=O)NNC(=O)/C=C/c2ccccc2F)c2ncccc2c1 (stereo not shown) [7h, (E)-1-(3-(2-Fluorophenyl)acryloyl)-4-(4-(6-methoxyquinolin-8-ylamino)pentyl)semicarbazide] | 15 ± 2 µM | 46 ± 2 µM | 40 ± 4 µM | 12 ± 4 µM | 5.9 ± 2 µM | 12 ± 0.2 µM | 52% | 100% | 61% | 100% |  | 67% | 41 µM |  |  |  |  |  |  |
| COc1cc(NC(C)CCCNC(=O)NNC(=O)/C=C/c2cccc(C(F)(F)F)c2)c2ncccc2c1 (stereo not shown) [7i, (E)-4-(4-(6-Methoxyquinolin-8-ylamino)pentyl)-1-(3-(3-(trifluoromethyl)phenyl)acryloyl)semicarbazide] | 10 ± 1 µM | 10 ± 1 µM | 9.4 ± 4.8 µM | 16 ± 5 µM | 2.3 ± 0.2 µM | 18 ± 3 µM | 96% | 73% | 71% | 100% |  | 84% | 42.5 µM | 7.9 µM |  |  |  |  |  |
| COc1cc(NC(C)CCCNC(=O)NNC(=O)/C=C/c2ccc(C(F)(F)F)cc2)c2ncccc2c1 (stereo not shown) [7j, (E)-4-(4-(6-Methoxyquinolin-8-ylamino)pentyl)-1-(3-(4-(trifluoromethyl)phenyl)acryloyl)semicarbazide] | 9.4 ± 5.6 µM | 28 ± 12 µM | 27 µM | 40 ± 5 µM | 0.03 ± 0.02 µM | 34 ± 2 µM | 100% | 95% | 42% | 79% |  | 50% | 35 µM | 9.5 µM | 900 fold | 100-to 500 fold |  |  |  |
| COc1cc(NC(C)CCCNC(=O)NNC(=O)/C=C/c2cc(C(F)(F)F)cc(C(F)(F)F)c2)c2ncccc2c1 (stereo not shown) [7k, (E)-1-(3-(3,5-Bis(trifluoromethyl)phenyl)acryloyl)-4-(4-(6-methoxyquinolin-8-ylamino)pentyl)semicarbazide] | 17 ± 5 µM | 30 ± 23 µM | 30 ± 17 µM | 32 ± 4 µM | 3.2 ± 0.8 µM | 48 ± 2 µM | 98% | 97% | 72% | 100% |  | 55% | 67.5 µM | 8.4 µM |  |  |  |  |  |
| N.N.[Cl][Pt][Cl] [CIS, cisplatin, reference compound] |  |  |  |  |  |  |  |  |  |  |  |  |  |  |  |  | 10 ± 1 µM | 1 ± 0.1 µM | 7 ± 2 µM |
